Target: T1, Cdc7 (BEV coexpressed huCDC7/DBF4) (Homo sapiens, UniProt O00311)
T1 construct: made in house; host or cells: BEV (baculovirus expression vector) co-expression; insect cells are implied but no cell line is named
Experiment: Cdc7 enzyme inhibition assay ([33P]ATP, biotinylated peptide substrate, FlashPlate)
Format: biochemical
Settings: Table 3; enzyme inhibition data (Ki)
Description: Cdc7 (BEV coexpressed huCDC7/DBF4) is prepared internally. Cdc7 assays are conducted as follows with final concentrations as listed. […] Reactions are quenched after 1 hr by the addition of 90 μL stop buffer (50 mM EDTA, 2M NaCl). […] (Ki) for exemplary compounds.

T1 sequence (O00311 whole entry): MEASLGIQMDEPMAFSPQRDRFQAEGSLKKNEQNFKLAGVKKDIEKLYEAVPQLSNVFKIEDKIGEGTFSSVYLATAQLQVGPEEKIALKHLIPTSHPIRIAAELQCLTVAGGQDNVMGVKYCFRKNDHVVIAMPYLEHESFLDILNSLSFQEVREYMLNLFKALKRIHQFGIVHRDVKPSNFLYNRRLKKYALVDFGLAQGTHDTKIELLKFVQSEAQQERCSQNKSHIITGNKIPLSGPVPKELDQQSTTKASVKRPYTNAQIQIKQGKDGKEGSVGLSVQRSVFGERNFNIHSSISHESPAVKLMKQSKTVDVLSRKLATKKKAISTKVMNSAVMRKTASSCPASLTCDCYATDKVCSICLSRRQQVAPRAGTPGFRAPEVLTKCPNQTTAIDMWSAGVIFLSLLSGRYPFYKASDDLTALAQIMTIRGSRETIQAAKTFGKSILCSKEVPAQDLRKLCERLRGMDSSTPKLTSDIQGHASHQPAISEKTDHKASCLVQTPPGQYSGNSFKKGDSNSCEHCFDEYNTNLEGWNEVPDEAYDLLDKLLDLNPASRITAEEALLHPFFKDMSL
T1 sequence (Q9UBU7 whole entry partner): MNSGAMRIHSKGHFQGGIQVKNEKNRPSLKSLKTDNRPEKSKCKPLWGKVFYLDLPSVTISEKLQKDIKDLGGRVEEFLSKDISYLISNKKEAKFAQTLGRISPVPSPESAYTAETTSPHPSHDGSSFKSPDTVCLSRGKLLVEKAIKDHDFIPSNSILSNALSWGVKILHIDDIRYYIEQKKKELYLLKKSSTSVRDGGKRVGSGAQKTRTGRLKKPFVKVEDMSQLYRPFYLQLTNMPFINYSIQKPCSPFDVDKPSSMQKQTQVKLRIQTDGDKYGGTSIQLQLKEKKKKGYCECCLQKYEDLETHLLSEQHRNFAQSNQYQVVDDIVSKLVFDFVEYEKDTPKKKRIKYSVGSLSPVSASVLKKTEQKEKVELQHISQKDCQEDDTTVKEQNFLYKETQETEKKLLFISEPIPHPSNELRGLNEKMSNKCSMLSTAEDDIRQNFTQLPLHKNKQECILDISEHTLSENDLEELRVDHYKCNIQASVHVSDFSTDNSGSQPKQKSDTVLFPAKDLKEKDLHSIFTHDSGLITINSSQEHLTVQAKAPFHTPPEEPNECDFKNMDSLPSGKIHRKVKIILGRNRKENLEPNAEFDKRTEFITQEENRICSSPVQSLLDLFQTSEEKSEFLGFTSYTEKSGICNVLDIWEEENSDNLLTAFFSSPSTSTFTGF

SMILES	Ki [nM]
CN1CCC(C2CCC(N(C)c3cc(-c4c[nH]c5ncccc45)cc(Cl)n3)CC2)CC1 (stereo not shown) [Example 185, 6-chloro-N-methyl-N-[4-(1-methylpiperidin-4-yl)cyclohexyl]-4-(1H-pyrrolo[2,3-b]pyridin-3-yl)pyridin-2-amine]	< 10
CS(=O)(=O)N1CCCC(C2CCC(Nc3cc(-c4c[nH]c5ncccc45)cc(Cl)n3)CC2)C1 (stereo not shown) [Example 186, 6-chloro-N-{4-[1-(methylsulfonyl)piperidin-3-yl]cyclohexyl}-4-(1H-pyrrolo[2,3-b]pyridin-3-yl)pyridin-2-amine]	< 10
Clc1cc(-c2c[nH]c3ncc(-c4cnn(CCN5CCOCC5)c4)cc23)cc(NC2CCCCC2)n1 [Example 187, 6-chloro-N-cyclohexyl-4-(5-{1-[2-(morpholin-4-yl)ethyl]-1H-pyrazol-4-yl}-1H-pyrrolo[2,3-b]pyridin-3-yl)pyridin-2-amine]	< 10
O=C(C1CC1)N1CCCC(C2CCC(Nc3cc(-c4c[nH]c5ncccc45)cc(Cl)n3)CC2)C1 (stereo not shown) [Example 188, [3-(4-{[6-chloro-4-(1H-pyrrolo[2,3-b]pyridin-3-yl)pyridin-2-yl]amino}cyclohexyl)piperidin-1-yl](cyclopropyl)methanone]	< 10
Clc1cc(-c2c[nH]c3ncccc23)cc(NC2CCC(C3CCCN(C4CCC4)C3)CC2)n1 (stereo not shown) [Example 189, 6-chloro-N-[4-(1-cyclobutylpiperidin-3-yl)cyclohexyl]-4-(1H-pyrrolo[2,3-b]pyridin-3-yl)pyridin-2-amine]	< 10
Clc1cc(-c2c[nH]c3ncccc23)cc(NC2CCC(C3CCNC3)CC2)n1 (stereo not shown) [Example 190, 6-chloro-N-[4-(pyrrolidin-3-yl)cyclohexyl]-4-(1H-pyrrolo[2,3-b]pyridin-3-yl)pyridin-2-amine]	< 10
CN1CCC(N2CCC(Nc3cc(-c4c[nH]c5ncccc45)cc(Cl)n3)CC2)CC1 [Example 191, N-[6-chloro-4-(1H-pyrrolo[2,3-b]pyridin-3-yl)pyridin-2-yl]-1′-methyl-1,4′-bipiperidin-4-amine]	< 10
O=C(NCCS(=O)(=O)N[C@H]1CC[C@H](Nc2cc(-c3c[nH]c4ncccc34)cc(Cl)n2)CC1)c1ccccc1 [Example 193, N-{2-[(trans-4-{[6-chloro-4-(1H-pyrrolo[2,3-b]pyridin-3-yl)pyridin-2-yl]amino}cyclohexyl)sulfamoyl]ethyl}benzamide]	< 10
CS(=O)(=O)NCCS(=O)(=O)N[C@H]1CC[C@H](Nc2cc(-c3c[nH]c4ncccc34)cc(Cl)n2)CC1 [Example 194, N-(trans-4-{[6-chloro-4-(1H-pyrrolo[2,3-b]pyridin-3-yl)pyridin-2-yl]amino}cyclohexyl)-2-[(methylsulfonyl)amino]ethanesulfonamide]	< 10
Clc1cc(-c2c[nH]c3ncc(OCCN4CCOCC4)cc23)cc(NC2CCCCC2)n1 [Example 195, 6-chloro-N-cyclohexyl-4-{5-[2-(morpholin-4-yl)ethoxy]-1H-pyrrolo[2,3-b]pyridin-3-yl}pyridin-2-amine]	< 10
Cn1cncc1COc1cnc2[nH]cc(-c3cc(Cl)nc(NC4CCCCC4)c3)c2c1 [Example 196, 6-chloro-N-cyclohexyl-4-{5-[(1-methyl-1H-imidazol-5-yl)methoxy]-1H-pyrrolo[2,3-b]pyridin-3-yl}pyridin-2-amine]	< 10
CN1CCC(C2CCC(Nc3cc(-c4c[nH]c5ncccc45)cc(Cl)n3)CC2)C1 (stereo not shown) [Example 197, 6-chloro-N-[4-(1-methylpyrrolidin-3-yl)cyclohexyl]-4-(1H-pyrrolo[2,3-b]pyridin-3-yl)pyridin-2-amine]	< 10
Fc1ccc(CN2CCC(C3CCC(Nc4cc(-c5c[nH]c6ncccc56)cc(Cl)n4)CC3)C2)cc1 (stereo not shown) [Example 198, 6-chloro-N-{4-[1-(4-fluorobenzyl)pyrrolidin-3-yl]cyclohexyl}-4-(1H-pyrrolo[2,3-b]pyridin-3-yl)pyridin-2-amine]	< 10
CS(=O)(=O)N1CCC(C2CCC(Nc3cc(-c4c[nH]c5ncccc45)cc(Cl)n3)CC2)C1 (stereo not shown) [Example 199, 6-chloro-N-{4-[1-(methylsulfonyl)pyrrolidin-3-yl]cyclohexyl}-4-(1H-pyrrolo[2,3-b]pyridin-3-yl)pyridin-2-amine]	< 10
Clc1cc(-c2c[nH]c3ncccc23)cc(NC2CCN(C3CCC(NC4CCC4)CC3)CC2)n1 (stereo not shown) [Example 200, 6-chloro-N-{1-[4-(cyclobutylamino)cyclohexyl]piperidin-4-yl}-4-(1H-pyrrolo[2,3-b]pyridin-3-yl)pyridin-2-amine]	< 10
N#Cc1cnc2[nH]cc(-c3cc(Cl)nc(NC4CCCCC4)c3)c2c1 [Example 201, 3-[2-chloro-6-(cyclohexylamino)pyridin-4-yl]-1-1H-pyrrolo[2,3-b]pyridine-5-carbonitrile]	10 to 100
O=C(N[C@H]1CC[C@H](Nc2cc(-c3c[nH]c4ncccc34)cc(Cl)n2)CC1)c1ccc(F)cc1F [Example 202, N-(trans-4-{[6-chloro-4-(1H-pyrrolo[2,3-b]pyridin-3-yl)pyridin-2-yl]amino}cyclohexyl)-2,4-difluorobenzamide]	< 10

Continued, values first:

Ki [nM]	SMILES
< 10	O=C(N[C@H]1CC[C@H](Nc2cc(-c3c[nH]c4ncccc34)cc(Cl)n2)CC1)C1CN(Cc2ccc(F)cc2)C1 [Example 166, N-(trans-4-{[6-chloro-4-(1H-pyrrolo[2,3-b]pyridin-3-yl)pyridin-2-yl]amino}cyclohexyl)-1-(4-fluorobenzyl)azetidine-3-carboxamide]
< 10	CS(=O)(=O)N1CC(C(=O)N[C@H]2CC[C@H](Nc3cc(-c4c[nH]c5ncccc45)cc(Cl)n3)CC2)C1 [Example 167, N-(trans-4-{[6-chloro-4-(1H-pyrrolo[2,3-b]pyridin-3-yl)pyridin-2-yl]amino}cyclohexyl)-1-(methylsulfonyl)azetidine-3-carboxamide]
< 10	Clc1cc(-c2c[nH]c3nccc(Cl)c23)cc(NC2CCCCC2)n1 [Example 168, 6-chloro-4-(4-chloro-1H-pyrrolo[2,3-b]pyridin-3-yl)-N-cyclohexylpyridin-2-amine]
< 10	O=S(=O)(CCNC1CCC1)NC1CCCC(Nc2cc(-c3c[nH]c4ncccc34)cc(Cl)n2)C1 (stereo not shown) [Example 170, N-(3-{[6-chloro-4-(1H-pyrrolo[2,3-b]pyridin-3-yl)pyridin-2-yl]amino}cyclohexyl)-2-(cyclobutylamino)ethanesulfonamide]
< 10	Clc1cc(-c2c[nH]c3ncc(-c4cn[nH]c4)cc23)cc(NC2CCCCC2)n1 [Example 171, 6-chloro-N-cyclohexyl-4-[5-(1H-pyrazol-4-yl)-1H-pyrrolo[2,3-b]pyridin-3-yl]pyridin-2-amine]
< 10	O=C(NCCS(=O)(=O)NC1CCCC(Nc2cc(-c3c[nH]c4ncccc34)cc(Cl)n2)C1)c1cnccn1 (stereo not shown) [Example 172, N-{2-[(3-{[6-chloro-4-(1H-pyrrolo[2,3-b]pyridin-3-yl)pyridin-2-yl]amino}cyclohexyl)sulfamoyl]ethyl}pyrazine-2-carboxamide]
< 10	Clc1cc(-c2c[nH]c3ncc(Br)cc23)cc(NC2CCCCC2)n1 [Example 173, 4-(5-bromo-1H-pyrrolo[2,3-b]pyridin-3-yl)-6-chloro-N-cyclohexylpyridin-2-amine]
< 10	CC(=O)NC1CCC(CC2CCC(Nc3cc(-c4c[nH]c5ncccc45)cc(Cl)n3)CC2)CC1 (stereo not shown) [Example 174, N-{4-[(4-{[6-chloro-4-(1H-pyrrolo[2,3-b]pyridin-3-yl)pyridin-2-yl]amino}cyclohexyl)methyl]cyclohexyl}acetamide]
< 10	O=C(C1CC1)N1CCC(NC2CCC(Nc3cc(-c4c[nH]c5ncccc45)cc(Cl)n3)CC2)CC1 (stereo not shown) [Example 175, {4-[(4-{[6-chloro-4-(1H-pyrrolo[2,3-b]pyridin-3-yl)pyridin-2-yl]amino}cyclohexyl)amino]piperidin-1-yl}(cyclopropyl)methanone]
< 10	Cn1cc(-c2cnc3[nH]cc(-c4cc(Cl)nc(NC5CCCCC5)c4)c3c2)cn1 [Example 176, 6-chloro-N-cyclohexyl-4-[5-(1-methyl-1H-pyrazol-4-yl)-1H-pyrrolo[2,3-b]pyridin-3-yl]pyridin-2-amine]
< 10	COc1cnc2[nH]cc(-c3cc(Cl)nc(NC4CCCCC4)c3)c2c1 [Example 178, 6-chloro-N-cyclohexyl-4-(5-methoxy-1H-pyrrolo[2,3-b]pyridin-3-yl)pyridin-2-amine]
< 10	NCCS(=O)(=O)N[C@H]1CC[C@H](Nc2cc(-c3c[nH]c4ncccc34)cc(Cl)n2)CC1 [Example 179, 2-amino-N-(trans-4-{[6-chloro-4-(1H-pyrrolo[2,3-b]pyridin-3-yl)pyridin-2-yl]amino}cyclohexyl)ethanesulfonamide]
< 10	Oc1cnc2[nH]cc(-c3cc(Cl)nc(NC4CCCCC4)c3)c2c1 [Example 180, 3-[2-chloro-6-(cyclohexylamino)pyridin-4-yl]-1H-pyrrolo[2,3-b]pyridin-5-ol]
< 10	Clc1cc(-c2c[nH]c3ncccc23)cc(NC2CCC(C3CCCNC3)CC2)n1 (stereo not shown) [Example 181, 6-chloro-N-[4-(piperidin-3-yl)cyclohexyl]-4-(1H-pyrrolo[2,3-b]pyridin-3-yl)pyridin-2-amine]
< 10	Clc1cc(-c2c[nH]c3ncccc23)cc(NC2CCC(C3CCN(C4CCC4)CC3)CC2)n1 (stereo not shown) [Example 182, 6-chloro-N-[4-(1-cyclobutylpiperidin-4-yl)cyclohexyl]-4-(1H-pyrrolo[2,3-b]pyridin-3-yl)pyridin-2-amine]
< 10	CS(=O)(=O)N1CCC(C2CCC(Nc3cc(-c4c[nH]c5ncccc45)cc(Cl)n3)CC2)CC1 (stereo not shown) [Example 183, 6-chloro-N-{4-[1-(methylsulfonyl)piperidin-4-yl]cyclohexyl}-4-(1H-pyrrolo[2,3-b]pyridin-3-yl)pyridin-2-amine]
< 10	CN1CCC(C2CCC(Nc3cc(-c4c[nH]c5ncccc45)cc(Cl)n3)CC2)CC1 (stereo not shown) [Example 184, 6-chloro-N-[4-(1-methylpiperidin-4-yl)cyclohexyl]-4-(1H-pyrrolo[2,3-b]pyridin-3-yl)pyridin-2-amine]
